In one assay the test system is surface-bound thrombin. Put plainly: Extracorporeal recirculation circuit: clotting of the filter in recalcified human whole blood. Particulars: concentrations which prolong the thrombin clotting time to over 500 seconds (10 to 20 U/ml). How it is done:
The circuit consists of Tygon tubing (3/16"×1/16") connected to a 40 micron transfusion filter (Pall SQ40S). The system includes 3-way stopcocks for blood sampling. A surgical pressure transducer connected to a pressure recorder (Hewlett-Packard) is connected in line with the filter so that clotting of the filter causes a steady increase in pressure. Citrated whole blood taken from normal, healthy volunteers is used. The circuit is filled with 50 ml of whole blood placed in a reservoir and kept in a waterbath maintained at 37° C. The anticoagulant to be tested is added to the circuit, clotting is initiated by recalcification (0.8 ml of 1.0M CaCl2), and the blood is recirculated at a constant flow rate through the thrombogenic surface using a roller head pump (Cole-Parmer MFLX modular drive with a large F/6 roll head cartridge). Thrombosis of the filter is monitored by a change in pressure in a gauge inserted into the circuit, proximal to the filter. […]
The inactivation of surface-bound thrombin and fluid-phase thrombin can be measured simultaneously using this system. More particularly, inactivation of surface-bound thrombin is quantified by recording the delay in clotting of the circuit. […] Inactivation of fluid phase thrombin is quantified by recording the thrombin clotting time of plasma prepared from blood removed from the circuit just before recalcification.

A further assay has as its system fluid-phase thrombin. Put plainly: Thrombin clotting time of plasma from blood of the extracorporeal circuit. It counts as biochemical, human. The text has this: The inactivation of surface-bound thrombin and fluid-phase thrombin can be measured simultaneously using this system. More particularly, inactivation of surface-bound thrombin is quantified by recording the delay in clotting of the circuit. This delay is contributed to, albeit to a lesser extent, by the inactivating effect of the anticoagulant on fluid phase thrombin, whose generation is potentiated by the clot-bound thrombin. Inactivation of fluid phase thrombin is quantified by recording the thrombin clotting time of plasma prepared from blood removed from the circuit just before recalcification.

As for Hirudin, in the assay on surface-bound thrombin, the “prevention of thrombosis in the circuit compared with LA-LMWH” value is recorded as “much less effective at preventing thrombosis in the circuit”. Besides, the TCT in the assay with fluid-phase thrombin (10 U/mL (Table 3)) and in the assay with fluid-phase thrombin (20 U/ml (Table 3)) was more than 500 s throughout.

Source of the values: patent publication US5767269A, “Processes for the preparation of low-affinity, low molecular weight heparins useful as antithrombotics” (Hamilton Civic Hospitals Research Development Inc., priority 1996, dated 1998).
